Here are results for 19 molecules from patent US8343983B2, “Substituted pyrazolo-pyrimidine compounds” (ArQule, Inc., priority 2009, dated 2013).

Like-named read-outs stand apart in the source and are kept apart here. Bounds are passed on as bounds.

This assay deals with cancer cells. Description: MTS assay: inhibition of cell growth (formazan absorbance at 492 nm after 72 hours with test compound). It is filed as cell-based. The conditions noted are these: inhibition class. The essentials:
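DMEM with 1% FBS; cells seeded at 3000/well and grown 18 h at 37 °C, then exposed to compound for 72 h and to MTS/PMS for 4 h. IC50 is the concentration giving a 50% absorbance drop; grades are % inhibition bands.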
On the technique in general: Tetrazolium assays rely on reduction of a dye to a coloured formazan, in cell work by metabolically active cells.

The mark [1] stands for this setting: Homo sapiens, DLD-1 cells, read-out: DLD-1, MTS 72 hours at 10 uM.
[2] abbreviates: Homo sapiens, KATO III cells, read-out: KATO III, MTS 72 hours at 10 uM.
Where [3] appears, read: Homo sapiens, MDA-MB-231 cells, read-out: MDA-MB-231, MTS 72 hours at 10 uM.
Where [4] appears, read: Homo sapiens, NCI-H1299 cells, read-out: NCI-H1299, MTS 72 hours at 10 uM.
Where [5] appears, read: Homo sapiens, PC-3 cells, read-out: PC-3, MTS 72 hours at 10 uM.
[6] abbreviates: PACA-2 cells, read-out: PACA-2, MTS 72 hours at 10 uM.

With `c1ccc(CN2CCc3n[nH]c4nc(N5CCN(c6cnccn6)CC5)nc2c34)cc1` [Compound 56, 6-benzyl-4-(4-pyrazin-2-ylpiperazin-1-yl)-2,6,7,8-tetrahydro-1,2,3,5,6-pentaazaacenaphthylene], the inhibition at 10 µM is less than 50% under setting [1]; less than 50% under setting [2]; less than 50% under setting [3]; less than 50% under setting [4]; less than 50% under setting [5]; less than 50% under setting [6].
`c1ccc(CN2CCc3n[nH]c4nc(NCCN5CCOCC5)nc2c34)cc1` [Compound 57, 6-benzyl-N-(2-morpholin-4-ylethyl)-2,6,7,8-tetrahydro-1,2,3,5,6-pentaazaacenaphthylen-4-amine]: the inhibition at 10 µM is greater than 79% under setting [1]; greater than 79% under setting [2]; greater than 79% under setting [3]; 50 to 79% under setting [4]; greater than 79% under setting [5]; greater than 79% under setting [6].
For `COc1cc2c(cc1OC)CN(c1nc3c4c(n[nH]c4n1)CCN3Cc1ccccc1)CC2` [Compound 58, 6-benzyl-4-(6,7-dimethoxy-3,4-dihydroisoquinolin-2(1H)-yl)-2,6,7,8-tetrahydro-1,2,3,5,6-pentaazaacenaphthylene], the inhibition at 10 µM under setting [1] fell in the range of 50 to 79%; the inhibition at 10 µM under setting [2] was less than 50%; the inhibition at 10 µM under setting [3] is 50 to 79%; the inhibition at 10 µM under setting [4] lay in the range of 50 to 79%; the inhibition at 10 µM under setting [5] was greater than 79%; the inhibition at 10 µM under setting [6] was less than 50%.
As to `c1ccc(CN2CCc3n[nH]c4nc(NCC5COc6ccccc6O5)nc2c34)cc1` (stereo not drawn) [Compound 59, 6-benzyl-N-(2,3-dihydro-1,4-benzodioxin-2-ylmethyl)-2,6,7,8-tetrahydro-1,2,3,5,6-pentaazaacenaphthylen-4-amine], the inhibition at 10 µM under setting [1] is less than 50%; the inhibition at 10 µM under setting [2] was less than 50%; the inhibition at 10 µM under setting [3] was less than 50%; the inhibition at 10 µM under setting [4] is less than 50%; the inhibition at 10 µM under setting [5] was less than 50%; the inhibition at 10 µM under setting [6] was less than 50%.
Regarding `CC(C)Nc1nc2c3c(n[nH]c3n1)CCN2Cc1ccccc1` [Compound 60, 6-benzyl-N-isopropyl-2,6,7,8-tetrahydro-1,2,3,5,6-pentaazaacenaphthylen-4-amine], the inhibition at 10 µM reads like this: under setting [1], less than 50%; under setting [2], less than 50%; under setting [3], less than 50%; under setting [4], less than 50%; under setting [5], less than 50%; under setting [6], less than 50%.
For `Clc1ccc(CCNc2nc3c4c(n[nH]c4n2)CCN3Cc2ccccc2)cc1` [Compound 61, 6-benzyl-N-[2-(4-chlorophenyl)ethyl]-2,6,7,8-tetrahydro-1,2,3,5,6-pentaazaacenaphthylen-4-amine], the inhibition at 10 µM is 50 to 79% under setting [1]; less than 50% under setting [2]; less than 50% under setting [3]; 50 to 79% under setting [4]; less than 50% under setting [5]; less than 50% under setting [6].
Take `OCCN(Cc1ccccc1)c1nc2c3c(n[nH]c3n1)CCN2Cc1ccccc1` [Compound 62, 2-[benzyl(6-benzyl-2,6,7,8-tetrahydro-1,2,3,5,6-pentaazaacenaphthylen-4-yl)amino]ethanol]: the inhibition at 10 µM under setting [1] is less than 50%; the inhibition at 10 µM under setting [2] was less than 50%; the inhibition at 10 µM under setting [3] is 50 to 79%; the inhibition at 10 µM under setting [4] is less than 50%; the inhibition at 10 µM under setting [5] is less than 50%; the inhibition at 10 µM under setting [6] is less than 50%.
Regarding `c1ccc(CN2CCc3n[nH]c4nc(NCc5ccc6c(c5)CCO6)nc2c34)cc1` [Compound 63, 6-benzyl-N-(2,3-dihydro-1-benzofuran-5-ylmethyl)-2,6,7,8-tetrahydro-1,2,3,5,6-pentaazaacenaphthylen-4-amine], the inhibition at 10 µM runs as follows: under setting [1], less than 50%; under setting [2], less than 50%; under setting [3], less than 50%; under setting [4], less than 50%; under setting [5], less than 50%; under setting [6], less than 50%.
As to `CN(CCO)c1nc2c3c(n[nH]c3n1)CCN2Cc1ccccc1` [Compound 64, 2-[(6-benzyl-2,6,7,8-tetrahydro-1,2,3,5,6-pentaazaacenaphthylen-4-yl)(methyl)amino]ethanol], the inhibition at 10 µM was less than 50% under setting [1]; less than 50% under setting [2]; less than 50% under setting [3]; less than 50% under setting [4]; less than 50% under setting [5]; less than 50% under setting [6].
As to `c1ccc(CN2CCc3n[nH]c4nc(NCCc5ccccn5)nc2c34)cc1` [Compound 65, 6-benzyl-N-(2-pyridin-2-ylethyl)-2,6,7,8-tetrahydro-1,2,3,5,6-pentaazaacenaphthylen-4-amine], the inhibition at 10 µM was less than 50% under setting [1]; less than 50% under setting [2]; less than 50% under setting [3]; less than 50% under setting [4]; less than 50% under setting [5]; less than 50% under setting [6].
With `c1ccc(CN2CCc3n[nH]c4nc(NCCc5ccc(-c6ccccc6)cc5)nc2c34)cc1` [Compound 66, 6-benzyl-N-(2-biphenyl-4-ylethyl)-2,6,7,8-tetrahydro-1,2,3,5,6-pentaazaacenaphthylen-4-amine], the inhibition at 10 µM under setting [1] lay in the range of 50 to 79%; the inhibition at 10 µM under setting [2] is less than 50%; the inhibition at 10 µM under setting [3] was less than 50%; the inhibition at 10 µM under setting [4] is less than 50%; the inhibition at 10 µM under setting [5] is less than 50%; the inhibition at 10 µM under setting [6] was in the range of 50 to 79%.
As to `c1ccc(CN2CCc3n[nH]c4nc(NCC5CCCCCC5)nc2c34)cc1` [Compound 67, 6-benzyl-N-(cycloheptylmethyl)-2,6,7,8-tetrahydro-1,2,3,5,6-pentaazaacenaphthylen-4-amine], the inhibition at 10 µM is, setting by setting: under setting [1], less than 50%; under setting [2], less than 50%; under setting [3], less than 50%; under setting [4], 50 to 79%; under setting [5], less than 50%; under setting [6], 50 to 79%.
As for `CC(=O)NCCNc1nc2c3c(n[nH]c3n1)CCN2Cc1ccccc1` [Compound 68, N-{2-[(6-benzyl-2,6,7,8-tetrahydro-1,2,3,5,6-pentaazaacenaphthylen-4-yl)amino]ethyl}acetamide], the inhibition at 10 µM reads like this: under setting [1], less than 50%; under setting [2], less than 50%; under setting [3], less than 50%; under setting [4], less than 50%; under setting [5], less than 50%; under setting [6], less than 50%.
`CC(O)CNc1nc2c3c(n[nH]c3n1)CCN2Cc1ccccc1` (stereo not drawn) [Compound 69, 1-[(6-benzyl-2,6,7,8-tetrahydro-1,2,3,5,6-pentaazaacenaphthylen-4-yl)amino]propan-2-ol]: the inhibition at 10 µM reads like this: under setting [1], less than 50%; under setting [2], less than 50%; under setting [3], less than 50%; under setting [4], less than 50%; under setting [5], less than 50%; under setting [6], less than 50%.
Take `Clc1ccc(CCNc2nc3c4c(n[nH]c4n2)CCN3Cc2ccccc2)cc1Cl` [Compound 70, 6-benzyl-N-[2-(3,4-dichlorophenyl)ethyl]-2,6,7,8-tetrahydro-1,2,3,5,6-pentaazaacenaphthylen-4-amine]: the inhibition at 10 µM is greater than 79% under setting [1]; greater than 79% under setting [2]; greater than 79% under setting [3]; greater than 79% under setting [4]; less than 50% under setting [5]; greater than 79% under setting [6].
Take `c1ccc(CN2CCc3n[nH]c4nc(NCc5cccc(-c6ccccc6)c5)nc2c34)cc1` [Compound 71, 6-benzyl-N-(biphenyl-3-ylmethyl)-2,6,7,8-tetrahydro-1,2,3,5,6-pentaazaacenaphthylen-4-amine]: the inhibition at 10 µM is 50 to 79% under setting [1]; 50 to 79% under setting [2]; 50 to 79% under setting [3]; 50 to 79% under setting [4]; less than 50% under setting [5]; 50 to 79% under setting [6].
`O[C@H](CNc1nc2c3c(n[nH]c3n1)CCN2Cc1ccccc1)c1ccccc1` [Compound 72, (1S)-2-[(6-benzyl-2,6,7,8-tetrahydro-1,2,3,5,6-pentaazaacenaphthylen-4-yl)amino]-1-phenylethanol]: the inhibition at 10 µM reads like this: under setting [1], less than 50%; under setting [2], less than 50%; under setting [3], less than 50%; under setting [4], less than 50%; under setting [5], less than 50%; under setting [6], less than 50%.
`Cc1cccc2c(CCNc3nc4c5c(n[nH]c5n3)CCN4Cc3ccccc3)c[nH]c12` [Compound 73, 6-benzyl-N-[2-(7-methyl-1H-indol-3-yl)ethyl]-2,6,7,8-tetrahydro-1,2,3,5,6-pentaazaacenaphthylen-4-amine]: the inhibition at 10 µM is, setting by setting: under setting [1], greater than 79%; under setting [2], greater than 79%; under setting [3], 50 to 79%; under setting [4], greater than 79%; under setting [5], less than 50%; under setting [6], 50 to 79%.
Turning to `c1ccc(CN2CCc3n[nH]c4nc(N5CCN(CCc6ccncc6)CC5)nc2c34)cc1` [Compound 74, 6-benzyl-4-[4-(2-pyridin-4-ylethyl)piperazin-1-yl]-2,6,7,8-tetrahydro-1,2,3,5,6-pentaazaacenaphthylene], the inhibition at 10 µM reads like this: under setting [1], less than 50%; under setting [2], less than 50%; under setting [3], less than 50%; under setting [4], less than 50%; under setting [5], less than 50%; under setting [6], less than 50%.
